This is an account of results in patent US9545100B2, “Pesticidal compositions for insects and arthropods” (Stratacor, Inc., priority 2009, dated 2017).

For data set [1] the following is noted: emulsion formulations; cited from earlier work.
Data set [2] has as its system flies.
Data set [3] relates to Aedes aegypti mosquitoes. The procedure:
Fifteen female Aedes aegypti mosquitoes were placed in the dishes and their fate observed over a 48 hour period.
To further investigate the incapacitating and lethal effect of the C8910 composition, water dispersions of the same formulation of C8910 were tested in the laboratory against Aedes aegypti mosquitoes. Graded dilutions of C8910/Kaolin-P were prepared by dispersing the powder in water (2 grams of powder in 100 ml of water, the concentration used in the field) where the lowest concentration was 0.0075% (Table 1). One ml of each dispersion was evenly pipetted over a disk of filter paper (9 cm diameter, Whatman No. 1) contained in disposable petri dishes. Approximately 15 female Aedes aegypti mosquitoes, 6-10 days of age, were placed in the Petri dishes and covered to prevent mosquito escape. The dishes were maintained in an environmental chamber (76-80° F. and approximately 60% humidity) and observations were made of incapacitation and mortality at various times after treatments (Table 1).

The conditions of data set [4]: 20° C.; cited from earlier work.
Data set [5] concerns Aedes aegypti. Put plainly: Minimum effective dose to repel mosquitoes, applied to the skin. In kind it is in vivo. The procedure:
Notes: • 1. Even at the lowest dose (1.18 ug/cm2), there are behavioral effects from […]. […] After 16 minutes exposure, mosquitoes were transferred to fresh plates containing only distilled water. […] […] and DEET (N,N-diethyl-m-toluamide) have similar potencies to repel Aedes aegypti when both are applied to the skin. The minimum effective dose (MED) of […] to repel mosquitoes is estimated at 25 ug/cm^2, the measured MED value for DEET.

Data set [6] deals with Aedes aegypti mosquitoes. Put plainly: Olfactometer vapor phase repellency. Conditions: FIG. 1. It counts as in vivo. The text has this:
As frequently seen in homologous series of insect repellents (Skinner, W. A. and Johnson, H. L. The design of insect repellents. In: Drug Design, Vol. 10, E J Ariens, Ed., Academic Press, New York, pp. 277-305, 1980), activity at lower chain length is limited by lack of persistence due to high volatility. Activity at higher chain length is limited by lack of volatility, as mosquito repellents are required to have a minimum effective evaporation rate (Reifenrath, W. G. and Robinson, P. B. In Vitro Skin Evaporation and Penetration Characteristics of mosquito repellents. J. Pharm. Sci, 71:1014-1018, 1982; Reifenrath, W. G. and Spencer, T. S. Evaporation and penetration from skin. In: Percutaneous Absorption Mechanisms Methodology Drug Delivery, R L Bronaugh and H I Maibach, Eds., 1st Ed., Marcel Dekker, New York, pp. 305-325, 1985).
The straight chain fatty acids octanoic, nonanoic, decanoic, undecanoic, and lauric are designated as C8 through C12, respectively; 3-methylpentanoic acid as 3MPENTAN, 3-methyl-2-pentenoic acid as 3M2PENTEN, 2-octenoic acid as 2OCTEN, 3-methyl-2-octenoic acid as 3M2OCTEN, and 4-methyloctanoic acid as 4MOCTAN. N,N-Diethyl-m-toluamide is designated as DEET.

Data set [7] relates to eggs of Aedes aegypti. Conditions: Cline 1972; cited from earlier work.
Data set [8] has as its system Aedes aegypti instar IV larvae and pupae. Conditions: Quraishi and Thorsteinson 1965; cited from earlier work.
Data set [9] relates to house fly larvae. Conditions: Levinson and Simon Ascher 1954; cited from earlier work.
Setting [10] is: 0.3000% in water dispersion, dose 47 ug/cm2.

Each structure is given as a SMILES string. Where two headings read alike, the source gives them in different places.

As to `CC1(C)C(C=C(Cl)Cl)C1C(=O)OCc1cccc(Oc2ccccc2)c1` (stereo not shown) [permethrin], the skin absorption entry in data set [1] is “about 30%”. The reversibility of incapacitation entry in data set [2] (dose of 4.7 ug/cm^2) and in data set [3] (dose of 4.7 ug/cm^2) was “irreversible” throughout. Besides, the vapor pressure entry in [4] is reported as “about 10^−8 mm Hg”.

On to `CCN(CC)C(=O)c1cccc(C)c1` [DEET, N,N-diethyl-m-toluamide], for which, in data set [2] (47 ug/cm^2), the immediate incapacitation result is “did not involve immediate incapacitation”; the “mortality at 24 hours” value is “did cause fly and mosquito mortality”. Further, in [3] (47 ug/cm^2), the immediate incapacitation entry was “did not involve immediate incapacitation”; the “mortality at 24 hours” value is “did cause fly and mosquito mortality”. The “minimum effective dose (MED) to repel mosquitoes” value in data set [5] turned out to be 25 ug/cm^2.

Regarding `CCCCCCCC(=O)O` [C8, octanoic acid], the repellency in olfactometer result in data set [6] is listed as “at or near the top of the repellency”. In addition, in [7], the ovicidal activity result is recorded as “ovicidal activity”.

Turning to `CCCCCCCCCCCC(=O)O` [Lauric acid, lauric acid], the toxicity to flies result in data set [2] (EC formulation) was “non-toxic”. Further, the “toxicity to instar IV larvae and pupae” value in data set [8] was “not”. Besides, in [9], the “larvicidal activity for housefly larvae” value was “declining activity”.

Regarding `CCCCCCCCCCC(=O)O` [undecanoic acid], the “larvicidal activity for housefly larvae” value in [9] is “declining activity”.

Regarding `C=CCCCCCCCCC(=O)O` [undecylenic], the ovicidal activity result in data set [7] was “ovicidal activity”.

For the compound `CCCCCCCCCC(=O)O` [C10, decanoic acid], the repellency in olfactometer entry in [6] is “at or near the top of the repellency”.

Consider `CCCCCCCCC(=O)O` [C9, nonanoic acid], for which the repellency in olfactometer result in data set [6] is given as “at or near the top of the repellency”. The ovicidal activity result in [7] is given as “ovicidal activity”.

As for `CCN(CC)CC(=O)Nc1c(C)cccc1C` [lidocaine free base, lidocaine], in data set [2] (freshly prepared aqueous emulsions 47 ug/cm^2 or 15% concentration in mineral oil), the fly incapacitation entry was “did not cause fly incapacitation”.

For `CC(O)C(=O)O` (stereo not shown) [Lactic Acid, lactic acid], the toxicity to flies result in data set [2] (test of acidic pH) was “nontoxic to flies”. In data set [3] (setting [10]), the “% Incapac. in 10 m exp.” value stood at 0%, the “% Incapac. in 25 m exp.” value turned out to be 0%, the “% Incapac. in 24 h exp.” value stood at 17% and the “% motality at 24 hours” value was 17%. Also, the “% motality at 48 hours” value in [3] (setting [10]) came to 17%. For the same compound, in [3] (0.3000% in water dispersion, dose 47 ug/cm2, listed as lactic acid), the “% Incapac. in 10 m exp.” value was “no incapacitation”. Further, the “number dead, noted beside % Incapac. in 24 h exp.” value in data set [3] (0.3000%, dose 47 ug/cm2) is given as “(2 dead)”.
